Patent US12011428B2, “Compositions and methods for stimulating ventilatory and/or respiratory drive” (priority 2022, dated 2024)

Key:
[1] = test system: freely-moving adult male Sprague—Dawley rats
[2] = test system: adult male Sprague—Dawley rats; conditions: rat, in vivo, iv
[3] = test system: adult male Sprague—Dawley rats; assay: Arterial blood gas measurements and A-a gradient; format: in vivo, rat; conditions: GSHee 100 μmol/kg IV alone
[4] = test system: adult male Sprague—Dawley rats; assay: Behaviors observed after injection; format: in vivo, rat; conditions: GSHee 100 μmol/kg IV
[5] = test system: adult male Sprague—Dawley rats; assay: Body temperature (BT), rectal thermistor probe; conditions: for Body temperature, Post-drug: conscious rats
[6] = GSH 100 μmol/kg IV, % change from Pre-values
[7] = GSH 100 μmol/kg IV, sum of the 15 individual % change from pre values

N[C@@H](CCC(=O)N[C@@H](CS)C(=O)NCC(=O)O)C(=O)O [GSH, glutathione]
Freq (frequency of breathing) ([1]; GSH 100 μmol/kg IV alone): prompt but short-lived increase | MV (minute ventilation) ([1]; GSH 100 μmol/kg IV alone): short-lived increases | TV (tidal volume) ([1]; GSH 100 μmol/kg IV alone): minor effects | Frequency (breaths/min), Peak drug response, % [1, 6]: +41% | Minute Ventilation (ml/min), Peak drug response, % [1, 6]: 61% | Tidal Volume (ml), Peak drug response, % [1, 6]: +15% | Frequency, Total drug response, % [1, 7]: +13% | Minute Ventilation, Total drug response, % [1, 7]: 15% | Tidal Volume, Total drug response, % [1, 7]: +2%

CCOC(=O)CNC(=O)[C@H](CS)NC(=O)CC[C@H](N)C(=O)O [GSHee, L-glutathione ethyl ester]
tail-flick latency (TFL) [2]: did not alter TFL | A-a gradient [3]: did not affect | arterial blood pCO2 [3]: minor but significant decrease | arterial blood pH [3]: minor but significant increases | arterial blood pO2 [3]: minor but significant increases | arterial blood sO2 [3]: did not affect | behavioral signs (movement, squealing, scratching or sniffing) after injection [4]: did not display any obvious behavioral signs | body temperature (BT) ([5]; 5 and 15 min post-injection of GSHee 100 μmol/kg IV): Neither vehicle nor GSHee affected BT | Body temperature, Post-drug ([5]; 5 min after GSHee 100 μmol/kg IV): 37.9 ± 0.1 | Body temperature, Post-drug ([5]; 15 min after GSHee 100 μmol/kg IV): 37.9 ± 0.1
